Experimental data taken from PMC3034307 (Bioorganic & medicinal chemistry letters, 2010).
pKi: −log10 of the molar value. Each block holds one compound with its values, some of them ahead of it.

What was measured:
Shp2 PTP [1] = biological target: T1, Shp2 PTP (Homo sapiens, UniProt Q06124); assay: Shp2 PTP inhibition assay; type: biochemical; settings: for Inhibition of Shp2 PTP activity at the highest concentration tested: 300 µM
T1 sequence (Q06124 1-593): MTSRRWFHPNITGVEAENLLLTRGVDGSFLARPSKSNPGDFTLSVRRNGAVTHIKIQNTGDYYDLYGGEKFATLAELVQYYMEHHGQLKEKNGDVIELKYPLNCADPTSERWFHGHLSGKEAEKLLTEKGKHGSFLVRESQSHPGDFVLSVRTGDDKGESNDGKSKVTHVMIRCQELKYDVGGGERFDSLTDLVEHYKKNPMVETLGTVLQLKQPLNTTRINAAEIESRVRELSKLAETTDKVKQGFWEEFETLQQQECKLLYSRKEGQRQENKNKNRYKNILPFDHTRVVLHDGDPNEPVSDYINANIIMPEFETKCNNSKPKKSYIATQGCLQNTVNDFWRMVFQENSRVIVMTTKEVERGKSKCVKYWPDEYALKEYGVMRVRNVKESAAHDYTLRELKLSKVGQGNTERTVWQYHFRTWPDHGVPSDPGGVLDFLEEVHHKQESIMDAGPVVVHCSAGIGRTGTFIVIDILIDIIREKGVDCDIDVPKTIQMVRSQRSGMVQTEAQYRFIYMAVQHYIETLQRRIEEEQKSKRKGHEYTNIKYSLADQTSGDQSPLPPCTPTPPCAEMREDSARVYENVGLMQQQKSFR

Shp2 PTP [2] = biological target: T1, Shp2 PTP; assay: Enzyme kinetic assay using DiFMUP as the substrate; type: biochemical
Shp2 = biological target: T2, Shp2 (Homo sapiens, UniProt Q06124); assay: Surface plasmon resonance; type: binding; settings: SPR
T2 sequence (Q06124 1-593): T1 sequence (Q06124 1-593)

- Inhibition of Shp2 PTP activity at the highest concentration tested (Shp2 PTP [1]): did not inhibit
SMILES: C[C@]12CC[C@@H]3c4ccc(O)cc4CC[C@H]3[C@@H]1CC[C@@H]2O [Estradiol, estradiol]

SMILES: C[C@]12CC[C@@H]3c4ccc(OC(=O)N(CCCl)CCCl)cc4CC[C@H]3[C@@H]1CC[C@@H]2OP(=O)(O)O [Estramustine phosphate, estramustine phosphate]
- pKi (Shp2 PTP [2]): 4.64
- Inhibition kinetics (best fit) (Shp2 PTP [2]; DiFMUP substrate): mixed inhibition kinetics
- association rate constant ka (Shp2): 2200 M⁻¹ s⁻¹

SMILES: C[C@]12CC[C@@H]3c4ccc(OC(=O)N(CCCl)CCCl)cc4CC[C@H]3[C@@H]1CC[C@@H]2O [Estramustine, estramustine]
- Inhibition of Shp2 PTP activity at the highest concentration tested (Shp2 PTP [1]): did not inhibit

SMILES: CC1=C(O)C(=O)C=C2C1=CC=C1[C@@]2(C)CC[C@@]2(C)[C@@H]3C[C@@H](C)C(=O)C[C@]3(C)CC[C@]12C [Maitenin]
- Fold less potent than celastrol in Shp2 inhibition (Shp2 PTP [1]): 18 fold

SMILES: COc1ccc2c(c1)CC[C@@H]1[C@@H]2CC[C@@]2(C)[C@H]1CC[C@@]21CCNP(=O)(N(CCCl)CCCl)O1 (stereo partly shown) [NSC233064]
- Inhibition of Shp2 PTP activity at the highest concentration tested (Shp2 PTP [1]): did not inhibit
